Assay results reported in publication PMC4065032, “Biochemical Characterization of Quinolinic Acid Phosphoribosyltransferase from Mycobacterium tuberculosis H37Rv and Inhibition of Its Activity by Pyrazinamide” (PLoS ONE, 2014).

B1: Quinolinic acid phosphoribosyltransferase from Mycobacterium tuberculosis H37Rv (recombinant, C-terminal 6xHis) (enzyme)
chain: MGLSDWELAAARAAIARGLDEDLRYGPDVTTLATVPASATTTASLVTREAGVVAGLDVALLTLNEVLGTNGYRVLDRVEDGARVPPGEALMTLEAQTRGLLTAERTMLNLVGHLSGIATATAAWVDAVRGTKAKIRDTRKTLPGLRALQKYAVRTGGGVNHRLGLGDAALIKDNHVAAAGSVVDALRAVRNAAPDLPCEVEVDSLEQLDAVLPEKPELILLDNFAVWQTQTAVQRRDSRAPTVMLESSGGLSLQTAATYAETGVDYLAVGALTHSVRVLDIGLDM
notes: also called MtQAPRTase; QAPRTase; not shown: His6, C-terminal, kept

How the values were obtained:
hQAPRTase = conditions: cited from earlier work
SEC = biological target: the molecule itself; experiment: SEC

Molecule	Km (hQAPRTase)	kcat (hQAPRTase; recalculated from Vmax)	stoichiometry N (SEC)
O=C(O)c1cccnc1C(=O)O [QA, 2,3-pyridinedicarboxylic acid]	22 µM	0.04 s⁻¹	
B1			2
